Assay: Stability study of bulk material (stability-indicating HPLC, storage under controlled temperature and humidity)
Assay type: physicochemical
Method: The stability of crystalline polymorphic forms or solvates of rimonabant hydrochloride of the present invention may be determined using conventional quantitative analytical methods. For example the stability of crystalline polymorph forms or solvates of rimonabant hydrochloride may be determined by using accelerated stability conditions, wherein the test compounds are stored under controlled conditions of temperature and humidity over known periods of time, e.g., 40° C./75% relative humidity. Quantitative analysis of the test compounds by high performance liquid chromatography method or by X-ray powder diffraction pattern, DSC, IR or TGA, against appropriate reference standards before, during and after the storage period allows the stability of the test compound to be determined.
The stability of polymorph forms or solvate forms (Form A, B, C, D and E) of crystalline rimonabant hydrochloride bulk material and tablets was assessed by storing samples for up to 6 or 12 weeks at 25° C./60% RH or 40° C./75% RH. Changes were monitored using a stability-indicating HPLC method. Results were calculated by normalized peak area (npa). Degradants were identified by comparison of their relative retention times against impurity standards.

With Cc1c(C(=O)NN2CCCCC2)nn(-c2ccc(Cl)cc2Cl)c1-c1ccc(Cl)cc1.Cl [Form D, N-piperidino-5-(4-chlorophenyl)-1-(2,4-dichlorophenyl)-4-methyl-3-pyrazolecarboxamide hydrochloride] the “stability (time)” value (bulk material, elevated temperatures and humidity) was 3 months and the “physical and chemical stability” value (solid state) was “physically and chemically stable”.

— patent publication US20080004313A1, “Preparation of crystalline polymorphs of rimonabant hydrochloride” (priority 2006, published 2008)
